According to US20220007651A1, “BACILLUS THURINGIENSIS STRAINS AND METHODS FOR CONTROLLING PESTS” (priority 2018, published 2022):

How the values were obtained:
[1] = test system: Spodoptera exigua Hübner (beet armyworm); test: Insecticidal assay, second instars on 48-well agar substrate plates; type: in vivo
Text: Zwittermicin A was partially purified from a strain derived from Bacillus thuringiensis strain NRRL B-67688. After growing the strain in a soy-based medium, the whole broth was centrifuged and the supernatant removed. The supernatant was passed through a 3 kDa filter to separate the zwittermicin A from larger molecules including any Cry toxins. The Vip3Aa11 protein was produced in the expression strain of Escherichia coli BL21 and applied to insect larvae as the E. coli whole broth culture (WB) at concentrations of 0.1%, 1%, and 10%. Treatment groups included Vip3Aa11 only (“no Zwa”); Vip3Aa11 with zwittermicin A (“1×Zwa); and Vip3Aa11 with concentrated zwittermicin A (“2×Zwa”) containing twice as much zwittermicin. Concentrations of zwittermicin A and Vip3Aa11 were adjusted by adding deionized water to prepare the appropriate dilutions. Control treatments included zwittermicin A (“1×Zwa”) alone, concentrated zwittermicin A alone (“2×Zwa”), untreated control, and a positive control containing 1000 ppm of a commercially available biological control agent active against Lepidoptera.
To evaluate the insecticidal activity of each treatment, second instars of Spodoptera exigua Hυbner (beet armyworm) were grown on 48-well plates containing an agar substrate similar to that described in Marrone et al., (1985), “Improvements in Laboratory Rearing of the Southern Corn Rootworm, Diabrotica undecimpuncta howardi Barber (Coleoptera: Chrysomelidae), on an Artificial Diet and Corn,” J. Econ. Entomol. 78: 290-293. Each treatment was applied to the agar substrate and a second instar was then placed in the well. After several days, insect development and survival were evaluated. Insect development scores were rated according to the following scale: 1=severely stunted; 2=highly stunted, minimal growth; 3=slightly smaller than untreated control; 4=same size as untreated control. […]
The experiment conducted in Example 3 was repeated with Cry1Ab1, Cry1Ia2, or Cry2Ab1 expressed in Escherichia coli BL21 and applied to insect larvae as the E. coli whole broth culture (WB) at concentrations of 0.2%, 4%, 10%, and 50%. The insect mortality score is based on the following scale: 4=0-25% mortality, 3=26-50% mortality, 2=51-79% mortality, 1=80-100% mortality. All percentages are adjusted according to any mortality observed with untreated control Spodoptera exigua Hυbner (beet armyworm) larvae. […] All reported mortality scores are the average of three replicate measurements.
The experiment in Example 3 was also repeated with Cry1Ca1 and Cry1Da1, which were expressed in Escherichia coli BL21 and applied to insect larvae as the E. coli whole broth culture (WB) at various concentrations. Instead of insect mortality rates, LC50, which in this case is the percentage of whole broth needed to cause 50% mortality, without zwittermicin or with various concentrations of zwittermicin, was determined.

Lepidopteran pests = conditions: Broderick et al., 2000; cited from earlier work
[2] = Cry toxin applied alone, E. coli whole broth 0.2%, 4%, 10%, 50%
[3] = Cry toxin in combination with zwittermicin A (1×Zwa), FIGS. 4A-4C

## NC(=O)NCC(NC(=O)[C@@H](O)[C@H](O)[C@H](N)C(O)CC(O)C(N)CO)C(N)=O (some centres unmarked) [zwittermicin A]
[1]; zwittermicin A alone, 1×Zwa
  insect mortality: generally had no observable effect on insect mortality
[1]; zwittermicin alone at the concentrations used in the LC50 experiment
  insect mortality: generally had no observable effect on insect mortality
[1]; zwittermicin alone, 1×Zwa or 2×Zwa
  effect on insect growth or survival: no significant effect on insect growth or survival
Lepidopteran pests
  insecticidal activity on its own: little or no observable insecticidal activity

## Cry1Ab1: Cry toxin expressed in Escherichia coli BL21, applied as whole broth
[1]; [2]
  insect mortality: demonstrated insect mortality at the higher application rates
[1]; [3]
  insect mortality: significant increase in insect mortality

## Cry1Da1: Cry toxin, SEQ ID NO: 17, expressed in Escherichia coli BL21, applied as whole broth
[1]; No Zwa
  ~LC50: >10 percentage of whole broth

B1: Cry2Ab1: Cry toxin, SEQ ID NO: 10, expressed in Escherichia coli BL21, applied as whole broth (protein, listed as Bacillus thuringiensis)
chain: MNSVLNSGRTTICDAYNVAAHDPFSFQHKSLDTVQKEWTEWKKNNHSLYLDPIVGTVASFLLKKVGSLVGKRILSELRNLIFPSGSTNLMQDILRETEKFLNQRLNTDTLARVNAELTGLQANVEEFNRQVDNFLNPNRNAVPLSITSSVNTMQQLFLNRLPQFQMQGYQLLLLPLFAQAANLHLSFIRDVILNADEWGISAATLRTYRDYLKNYTRDYSNYCINTYQSAFKGLNTRLHDMLEFRTYMFLNVFEYVSIWSLFKYQSLLVSSGANLYASGSGPQQTQSFTSQDWPFLYSLFQVNSNYVLNGFSGARLSNTFPNIVGLPGSTTTHALLAARVNYSGGISSGDIGASPFNQNFNCSTFLPPLLTPFVRSWLDSGSDREGVATVTNWQTESFETTLGLRSGAFTARGNSNYFPDYFIRNISGVPLVVRNEDLRRPLHYNEIRNIASPSGTPGGARAYMVSVHNRKNNIHAVHENGSMIHLAPNDYTGFTISPIHATQVNNQTRTFISEKFGNQGDSLRFEQNNTTARYTLRGNGNSYNLYLRVSSIGNSTIRVTINGRVYTATNVNTTTNNDGVNDNGARFSDINIGNVVASSNSDVPLDINVTLNSGTQFDLMNIMLVPTNISPLY
[1]; [2]
  insect mortality: demonstrated insect mortality at the higher application rates
[1]; [3]
  insect mortality: significant increase in insect mortality

B2: Cry1Ia2: Cry toxin, SEQ ID NO: 9, expressed in Escherichia coli BL21, applied as whole broth (protein, listed as Bacillus thuringiensis)
chain: MKLKNQDKHQSFSSNAKVDKISTDSLKNETDIELQNINHEDCLKMSEYENVEPFVSASTIQTGIGIAGKILGTLGVPFAGQVASLYSFILGELWPKGKNQWEIFMEHVEEIINQKISTYARNKALTDLKGLGDALAVYHDSLESWVGNRNNTRARSVVKSQYIALELMFVQKLPSFAVSGEEVPLLPIYAQAANLHLLLLRDASIFGKEWGLSSSEISTFYNRQVERAGDYSDHCVKWYSTGLNNLRGTNAESWVRYNQFRRDMTLMVLDLVALFPSYDTQMYPIKTTAQLTREVYTDAIGTVHPHPSFTSTTWYNNNAPSFSAIEAAVVRNPHLLDFLEQVTIYSLLSRWSNTQYMNMWGGHKLEFRTIGGTLNISTQGSTNTSINPVTLPFTSRDVYRTESLAGLNLFLTQPVNGVPRVDFHWKFVTHPIASDNFYYPGYAGIGTQLQDSENELPPEATGQPNYESYSHRLSHIGLISASHVKALVYSWTHRSADRTNTIEPNSITQIPLVKAFNLSSGAAVVRGPGFTGGDILRRTNTGTFGDIRVNINPPFAQRYRVRIRYASTTDLQFHTSINGKAINQGNFSATMNRGEDLDYKTFRTVGFTTPFSFLDVQSTFTIGAWNFSSGNEVYIDRIEFVPVEVTYEAEYDFEKAQEKVTALFTSTNPRGLKTDVKDYHIDQVSNLVESLSDEFYLDEKRELFEIVKYAKQLHIERNM
[1]; [2]
  insect mortality: little observable effect on insect mortality
[1]; [3]
  insect mortality: significant increase in insect mortality
